SMILES strings stand for the structures. pEC50, pIC50: −log10 of the molar value.

Results on one compound are retold here after ChEMBL document CHEMBL5543151, “Rational Design of a Novel Class of Human ClpP Agonists through a Ring-Opening Strategy with Enhanced Antileukemia Activity” (J Med Chem, 2024).

Experiment [1] has as its target T1, ATP-dependent Clp protease proteolytic subunit, mitochondrial (Homo sapiens, UniProt Q16740). As to the kind of experiment: Agonist activity at human Casein lysing protease P (HsClpP) assessed as proteolytic activity by measuring alpha-casein hydrolysis measured after 2 hrs incubation by fluorescence assay.
Experiment [2] relates to MV4-11. As to the kind of experiment: Anti-leukemia activity against human MV4-11 cells assessed as decrease in cell proliferation incubated for 72 hrs by CCK-8 assay. The class given is functional, cell-based. The note with it: MV4-11, 72 h.
A further experiment relates to Kasumi 1. As to the kind of experiment: Anti-leukemia activity against human Kasumi 1 cells assessed as decrease in cell proliferation incubated for 72 hrs by CCK-8 assay. In kind it is functional, cell-based. The following applies: Kasumi 1, 72 h.
In the next experiment the test system is HL-60. Briefly: Anti-leukemia activity against human HL-60 cells assessed as decrease in cell proliferation incubated for 72 hrs by CCK-8 assay. In kind it is functional, cell-based. The following applies: HL-60, 72 h. (In general: Formazan colour is commonly taken as a measure of viable cells.)
A further experiment has as its system K562. Briefly: Anti-leukemia activity against human K562 cells assessed as decrease in cell proliferation incubated for 72 hrs by CCK-8 assay. The following applies: K562, 72 h. In kind it is functional, cell-based.
Experiment [3] deals with MV4-11. Briefly: Potency index, ratio of ONC201 IC50 to test compound IC50 for anti-leukemia activity against human MV4-11 cells assessed as decrease in cell proliferation incubated for 72 hrs by CCK-8 assay. In kind it is functional.
Experiment [4] concerns the target T1, ATP-dependent Clp protease proteolytic subunit, mitochondrial. As to the kind of experiment: Binding affinity to human Casein lysing protease P (HsClpP) assessed as change in melting temperature measured after 2 hrs differential scanning fluorimetry (DSF) assay. (In general: DSF heats the sample and reads unfolding from a dye or from intrinsic fluorescence.)

For experiment [5], the system named is MV4-11. Briefly: Anti-leukemia activity against human MV4-11 cells assessed as decrease in cell proliferation incubated for 48 hrs by CCK-8 assay. In kind it is functional, cell-based. The following applies: MV4-11, 48 h.
The next experiment relates to MOLM-13. As to the kind of experiment: Anti-leukemia activity against human MOLM-13 cells assessed as decrease in cell proliferation incubated for 72 hrs by CCK-8 assay. In kind it is functional, cell-based. The note with it: MOLM-13, 72 h.
The test system of another experiment is THP-1. As to the kind of experiment: Anti-leukemia activity against human THP-1 cells assessed as decrease in cell proliferation incubated for 72 hrs by CCK-8 assay. The class given is functional, cell-based. The following applies: THP-1, 72 h.
Experiment [6] deals with MV4-11. As to the kind of experiment: Induction of apoptosis in human MV4-11 cells assessed as increase in apoptotic (annexin V-positive) cell proportions by measuring apoptotic rate at 120 nM measured after 48 hrs by Annexin V-647/P1 apoptosis detection assay relative to control. In kind it is functional.
For a further experiment, the system named is U-937. Briefly: Anti-leukemia activity against human U-937 cells assessed as decrease in cell proliferation incubated for 72 hrs by CCK-8 assay. The following applies: U-937, 72 h. The class given is functional, cell-based.
The test system of experiment [7] is MV4-11. Briefly: Anti-leukemia activity against human MV4-11 cells assessed as decrease in cell proliferation incubated for 24 hrs by CCK-8 assay. The note with it: MV4-11, 24 h. The class given is functional, cell-based.
The next experiment has as its system OCI-AML2. Briefly: Anti-leukemia activity against human OCI-AML2 cells assessed as decrease in cell proliferation incubated for 72 hrs by CCK-8 assay. The class given is functional, cell-based. The following applies: OCI-AML2, 72 h.

T1 sequence (Q16740 whole entry): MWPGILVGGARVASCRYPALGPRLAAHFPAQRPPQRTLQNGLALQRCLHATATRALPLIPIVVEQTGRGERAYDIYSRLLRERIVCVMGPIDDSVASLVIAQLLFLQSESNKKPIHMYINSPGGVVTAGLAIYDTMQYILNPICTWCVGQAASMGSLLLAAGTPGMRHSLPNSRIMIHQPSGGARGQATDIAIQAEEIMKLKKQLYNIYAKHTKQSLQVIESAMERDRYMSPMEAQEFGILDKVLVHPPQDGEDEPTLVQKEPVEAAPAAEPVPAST

Turning to `N#Cc1cccc(CN2CCc3[nH]c(NCc4ccc(F)cc4)nc(=O)c3C2)c1`, the pEC50 – broadly, −log10 of the EC50, conventionally taken in molar units – in [1] was 6.01; in experiment [4] it was 5.86; with MV4-11 [5] it was 7.11; with MV4-11 [7], 5.28. Also, the pIC50 (as a rule, the negative decadic logarithm of the IC50, by convention in mol/L) is 7.52 with MV4-11 [2]; 7.39 in the experiment with Kasumi 1; 7.39 with HL-60; 6.88 in the experiment with K562; 7.52 in the experiment with MOLM-13; 7.10 with THP-1. The figures for the pIC50 in the experiment on U-937 and in the experiment on OCI-AML2 were 7.11 and 7.41, respectively. For the same compound, the “Ratio IC50” value with MV4-11 [3] turned out to be 20. Besides, the Activity in the experiment on MV4-11 [6] is approximately 80%.
